In data set [1] the test system is primary articular chondrocytes. As to the kind of experiment: Cell viability by CCK-8 assay. Particulars: 72 h, read-out: IC50 (cell viability, toxicity in chondrocytes). Type of data set: cell-based, mouse. Here is the method:
The cell viability was evaluated by CCK-8 assay (Dojindo Molecular Technologies). Primary chondrocytes were plated in the 96-well plates and treated with the EP4 antagonists or DMSO for 72 h. A total of 10 μl CCK-8 was added to each well, the cells were incubated in the presence of CCK-8 for 2–3 h. The optical density (OD) of each well at 450 nm was recorded on a Microplate Reader (SPECTRA MAX190). The absorbance values were normalized by subtracting blank values of […]. The cell viability (% of control) is calculated as the percentage of (ODtest − ODblank)/(ODcontrol − ODblank). The 50% inhibitory concentration (IC50) was calculated with GraphPad Prism software using the sigmoidal dose-response function.
ATDC5 cell line was purchased from Riken BioResource Center (Tsukuba, Japan) and grown in a 1:1 mixture of DMEM/F12 medium (Corning, 10-092-CVR) supplemented with 5% fetal bovine serum (Gibco, 10099, USA) and 1% penicillin-streptomycin solution (Life Technologies). Cells were maintained at 37 °C under 5% CO2. Primary chondrocytes were obtained from knee joint cartilage of newborn mice. Knee joints were dissected from the tibia plateau and femoral condyle articular cartilage of mouse pups and digested in 0.1% collagenase type II (Sigma) overnight at 37 °C and chondrocytes were harvested by centrifugation. Primary chondrocytes were cultured at a density of 5 × 10^3 cells per ml at 37 °C with 5% CO2. DMEM/F12 medium with 10% fetal bovine serum (FBS) and 1% penicillin–streptomycin was used to culture the primary chondrocytes. Chondrogenic differentiation were induced with chondrogenic medium, which contains insulin-transferrin-selenium (ITS) (Sigma, I3146), 10 ng/ml TGF-β3 (PEPROTECH, 100-36E, USA), 100 nM Dexamethasone (Sigma, D4902), 50 μg/ml VC (Sigma), 1 mM sodium pyruvate (Sigma) and 40 μg/ml proline (Sigma), and/or treatment with rmIL-1β (R&D, 401-ML/CF), TNFα (PEPROTECH, 300-01A-50) in DMEM/F12 for indicated days. Western blotting was performed according to standard protocols. Antibodies used were: rabbit anti-Mmp3 (1:1000, HuaBio), rabbit anti-Mmp13 (1:500, abcam, ab39012), rabbit anti-p-CREB (1:2000, Cell Signaling Technology, 87G3), rabbit anti-CREB (1:2000, Cell Signaling Technology, 48H2), mouse anti-GAPDH (1:5000; Sigma-Aldrich, G8795), rabbit anti-Col2 (Abcam, Ab34712), rabbit anti-STAT3 (1:2000; Abcam, ab68153), rabbit anti-p-STAT3 (Y705) (1:2000; Abcam, ab76315), rabbit anti -p65 (1:1000; CST, 3034), rabbit anti-p-p65 (1:1000; CST, 3033), and rabbit anti-IκBα (1:1000; Abways, CY5026).
A general note: Formazan colour is commonly taken as a measure of viable cells.

A further data set relates to CRE-Luc in ATDC5 cells. As to the kind of experiment: CRE-Luc luciferase reporter assay. The class given is cell-based, mouse. Particulars: for CRE-Luc activity: 12 hr. The method, then: Six firefly luciferase reporters were used in the Luciferase assay, including CRE-Luc (PathDetect CRE cis-Reporting System; Stratagene, La Jolla CA) driven by a basic promoter (TATA box) plus four repeats of CRE; Sox9 promoter-Luc contains human SOX9 proximal promoter region (−1034 bp to +67 bp)[45]; 4 × 48-p89-Luc, mouse Col2a1 minimal promoter. AP-1-Luc, Nf-κb-Luc, STAT-Luc were obtained from Stratagene. Chondrocytes were cultured in 24-well plates and 300 ng firefly luciferase reporter constructs were transiently transfected using transfection reagent TransExellent-DNA (Cenji Biotech Inc, China) following manufacturer’s instruction, and 15 ng of the Copia-Renilla luciferase reporter was co-transfected as a normalization control. […] The Dual-Luciferase measurements were performed in triplicate using the Luciferase assay kit (Promega) and a LUMIstar Omega luminometer (BMG Labtech, Mornington, Australia).
A general note: A reporter such as luciferase makes a cellular process visible.

A further data set concerns zebrafish embryos. The data set can be described thus: Zebrafish embryo toxicity assay. Details: Mortality / Deformities / Hatching: dose or concentration left out as unconfirmed. Particulars: for Mortality: zebrafish embryos; for Deformities / Hatching: zebrafish.
Data set [2] concerns mouse femoral head cartilage explants. The data set can be described thus: Mouse femoral head cartilage explant culture. Type of data set: cell-based. Particulars: 1 ng/ml IL-1β, 48 h.
For a further data set, the system named is gastrointestinal tract. The data set can be described thus: Gastrointestinal tract toxicity (data not shown). The class given is in vivo. The note with it: compared to Celecoxib.
Data set [3] has as its system Sox9 target genes in ATDC5 cells. The data set can be described thus: qRT-PCR of Sox9 target genes in ATDC5 cells. The note with it: 30 μM HL-43, 24 hr. Type of data set: cell-based, mouse. Here is the method:
Quantitative RT-PCR was performed to measure the relative mRNA levels. RNA samples were prepared from the chondrocytes using Trizol (Takara). cDNA was generated using the Prime Script RT reverse transcriptase kit (Yeasen, Drr036a). Primers used for amplification were shown in Supplementary Table S1, GAPDH was used as the house keeping gene.
On the technique in general: In qPCR the cycle at which signal appears reflects the starting amount.

In data set [4] the test system is Sox9 promoter-Luc in ATDC5 cells. As to the kind of experiment: Sox9 promoter-Luc luciferase reporter assay. Type of data set: cell-based, mouse. The note with it: 6 h. Here is the method: (§1) Six firefly luciferase reporters were used in the Luciferase assay, including CRE-Luc (PathDetect CRE cis-Reporting System; Stratagene, La Jolla CA) driven by a basic promoter (TATA box) plus four repeats of CRE; Sox9 promoter-Luc contains human SOX9 proximal promoter region (−1034 bp to +67 bp)[45]; 4 × 48-p89-Luc, mouse Col2a1 minimal promoter. AP-1-Luc, Nf-κb-Luc, STAT-Luc were obtained from Stratagene. Chondrocytes were cultured in 24-well plates and 300 ng firefly luciferase reporter constructs were transiently transfected using transfection reagent TransExellent-DNA (Cenji Biotech Inc, China) following manufacturer’s instruction, and 15 ng of the Copia-Renilla luciferase reporter was co-transfected as a normalization control. Cells were treated with the indicated reagents for 48 h after transfection. The Dual-Luciferase measurements were performed in triplicate using the Luciferase assay kit (Promega) and a LUMIstar Omega luminometer (BMG Labtech, Mornington, Australia).

For data set [5], the system named is STAT3 nuclear translocation in ATDC5 cells. The data set can be described thus: Immunofluorescence of STAT3 and p-STAT3 subcellular localization. Type of data set: cell-based, mouse. The note with it: HL-43 (30 μM), 5 ng/ml IL-1β, 24 h.
Another data set concerns Nf-κb-Luc in ATDC5 cells. As to the kind of experiment: NF-κB-Luc luciferase reporter assay. The class given is cell-based, mouse. The note with it: 2 ng/ml IL-1β, 30 μM HL-43, 6 h. The method, then:
as §1

The mark [6] stands for this setting: 72 hpf, in comparison to Celecoxib and Grapiprant.

pIC50: −log10 of the molar value. Like-named read-outs stand apart in the source and are kept apart here. A value given as a limit tells only on which side of the number the result lay.

Protocol for zebrafish embryos: A breeding stock of zebrafish at the age of 6–24 months is used for egg production. Fertilized eggs were collected and viable eggs were transferred to the 12-well plate at 26 °C. Fertilized eggs between the 4-cell and 128-cell stages be used for the toxicity test, with ten fertilized eggs per concentration and three replicates of each concentration, a total of 30 eggs for each concentration. […] DMSO was added as vehicle control. Hatching, morphological abnormalities and survival were assessed 24 and 72 h of post-fertilization (dpf) in zebrafish exposed to the chemicals.

Consider `CCc1nc2c(C)nc(C)cc2n1-c1ccc(CCNC(=O)NS(=O)(=O)c2ccc(C)cc2)cc1` [Grapiprant], for which the pIC50 (as a rule, the negative decadic logarithm of the IC50, by convention in mol/L) in data set [1] (Mus musculus, Chondrocyte) was 3.95. Further, the CRE-Luc activity entry in the data set with CRE-Luc in ATDC5 cells is on record as “increase CRE-Luc activity in a dose dependent manner”. The Mortality with zebrafish embryos (24hpf, 0.3, n=30) is given as 4/30; in the data set on zebrafish embryos (24hpf, 1, n=30), 14/30; in the data set on zebrafish embryos (24hpf, 3, n=30), 13/30. The Deformities in the data set with zebrafish embryos (72hpf, 0.3, n=30) is recorded as 4/30; with zebrafish embryos (72hpf, 1, n=30), 3/30; in the data set with zebrafish embryos (72hpf, 3, n=30) it was 4/30. Further, the Hatching in the data set on zebrafish embryos (72hpf, 0.3, n=30) is 24/30; in the data set with zebrafish embryos (72hpf, 1, n=30), 16/30; in the data set with zebrafish embryos (72hpf, 3, n=30) it was 17/30.

In the case of `C[C@H](NC(=O)c1c(-c2ccccc2)nnn1CCOc1ccc(F)cc1)c1ccc(C(=O)O)cc1` [HL-43], the Mmp13 immunohistochemistry staining result in data set [2] was “reduced immunohistochemistry staining for the catabolic marker Mmp13”. Also, in data set [2], the “Proteoglycan content by S.O. staining” value is “favorable effect on the proteoglycan content”. Moreover, in the data set with gastrointestinal tract, the “Toxicity in gastrointestinal tract” value was “lower toxicity”. In addition, the “Sox9 target genes (Col2a1, Acan, Sox5, Col9a1, Col11a1, Col27a1, Dcn, Prg4), qRT-PCR” value in [3] is reported as “upregulated”. Besides, the pIC50 in data set [1] was below 3.00. Also, in [4] (2 ng/ml IL-1β), the “Sox9 promoter-Luc activity after IL-1β” value is on record as “partially rescued the Sox9 transcriptional expression in a dose-dependent manner”. In addition, the “Sox9 promoter-Luc activity” value in [4] (without IL-1β) is given as “increased by HL-43 stimulation in a dose-dependent manner”. The “IL-1β-induced nuclear translocation of STAT3 and p-STAT3” value in data set [5] is recorded as “suppressed”. Also, the “CRE-Luc reporter activity under pro-inflammatory conditions” value in the data set on CRE-Luc in ATDC5 cells (2 ng/ml IL-1β or 100 nM PGE2, 6 h) was “dose-dependently activated”. The CRE-Luc activity result in the data set on CRE-Luc in ATDC5 cells was “increase CRE-Luc activity in a dose dependent manner”. The “Mortality rate, ranking” value in the data set on zebrafish embryos (24 hpf, in comparison to Celecoxib and Grapiprant) is “lowest mortality rate”. In the data set on zebrafish embryos (setting [6]), the “Deformities rate, ranking” value is reported as “lowest deformities rate”. In addition, the “Hatching rate, ranking” value with zebrafish embryos (setting [6]) was “highest hatching rate”. The Mortality is given as 0/30 in the data set on zebrafish embryos (24hpf, 0.3, n=30); 3/30 in the data set on zebrafish embryos (24hpf, 1, n=30); 6/30 with zebrafish embryos (24hpf, 3, n=30). Also, the Deformities in the data set with zebrafish embryos (72hpf, 0.3, n=30) was 2/30; in the data set on zebrafish embryos (72hpf, 1, n=30), 2/30; in the data set on zebrafish embryos (72hpf, 3, n=30), 4/30. The Hatching is 28/30 in the data set on zebrafish embryos (72hpf, 0.3, n=30); 26/30 in the data set with zebrafish embryos (72hpf, 1, n=30); 23/30 in the data set with zebrafish embryos (72hpf, 3, n=30). The “NF-κB luciferase reporter activity” value in the data set on Nf-κb-Luc in ATDC5 cells is given as “not AP-1 or NF-κB”.

The record behind these values is publication PMC8901748, “A novel prostaglandin E receptor 4 (EP4) small molecule antagonist induces articular cartilage regeneration” (Cell Discovery, 2022).
